Tests used:
[1] = system: primary human gastric cancer xenograft; test: Tumor growth in primary human gastric cancer xenograft model; type: in vivo, BALB/c nude mice; conditions: paclitaxel 15 mg/kg Q4D×3 i.p.; Compound A 12 mg/kg BID p.o.; not statistically different from vehicle
Description: (§1) Tumor tissues surgically removed from a patient with gastric cancer. Within 2 to 4 hours following patient surgery, small fragments of tumor (3×3×3 mm^3) were subcutaneously engrafted into the scapular area of anesthetized NOD/SCID mice. After tumors grew to around 300-1000 mm^3, tumors were surgically removed and fragments were passaged in NOD/SCID mice by subsequent engraftments. Engraftment in BALB/c nude mice was conducted after 3 successfully passages in NOD/SCID mice. The right axilla region of each BALB/C nude mouse was cleaned with 70% ethanol prior to tumor fragments inoculation. Each animal was implanted subcutaneously with a fragment (around 3×3×3 mm^3) of the gastric cancer in the right flank via 20-gauge trocar needle.
All doses were based on free-base weight.
After implantation, primary tumor volume was measured in two dimensions using a calliper. Tumor volume was calculated using the formula: V=0.5×(a×b^2) where a and b are the long and short diameters of the tumor, respectively. Tumor growth inhibition (TGI) was calculated using the following formula:
[formula] Statistical analysis was conducted using the student T-test. P<0.05 was considered statistically significant.

PARP1/2 = conditions: disclosed in WO2013/097225A1; cited from earlier work
[2] = system: primary human SCLC (extensive-stage) xenograft; test: Tumor growth in primary human SCLC (extensive-stage) xenograft model; type: in vivo, BALB/c nude mice; conditions: cohort2, E/C 3 cycles then Compound B 5.45 mg/kg BID for 21 days
Description: as §1, with “extensive-stage SCLC.” for “gastric cancer.”, “biopsy, the” for “surgery, small fragments of”, “samples” for “(3×3×3 mm^3)”, “lung” for “gastric”
47 days after implantation, animals bearing tumor were divided to two cohorts, cohort lused smaller tumors for combination setting and cohort 2 used bigger tumors for maintenance setting. In cohort1, animals with mean tumor size of ˜150 mm^3 were assigned into 6 groups with 9 mice per group using a stratified randomization procedure. […]
After implantation, primary tumor volume was measured in two dimensions using a caliper. Tumor volume was calculated using the formula: V=0.5×(a×b^2) where a and b are the long and short diameters of the tumor, respectively. […]
Tumor growth inhibition (TGI) was calculated using the following formula: […]

[3] = Body weight and toxicity in primary human SCLC (extensive-stage) xenograft model; type: in vivo, BALB/c nude mice; conditions: cohort2, Compound B 5.45 mg/kg BID maintenance
Description: 47 days after implantation, animals bearing tumor were divided to two cohorts, cohort lused smaller tumors for combination setting and cohort 2 used bigger tumors for maintenance setting. In cohort1, animals with mean tumor size of ˜150 mm^3 were assigned into 6 groups with 9 mice per group using a stratified randomization procedure. Mice were then treated with vehicle (0.5% methylcellulose) twice daily (BID) or Compound B at 5.45 mg/kg BID for 21 days, or E/C [etoposide at 12 mg/kg (Day1-3)+carboplatin at 60 mg/kg (Day1) of a 7 day cycle] for 3 cycles then vehicle BID for 21 days (Day22-42), or the combination of E/C with Compound B at 0.68, 1.36 or 2.73 mg/kg BID (Day1-4 of the 7 day cycle) for 3 cycles then Compound B maintenance therapy at 5.45 mg/kg BID for 21 days (Day22-42). In cohort2, animals with mean tumor size of ˜400 mm^3 were treated with E/C for 3 cycles first. At day22, 20 animals were assigned into 2 groups with 10 mice per group using a stratified randomization procedure, then treated with vehicle (0.5% methylcellulose) twice daily (BID) for 21 days (Day22-42), or Compound B maintenance therapy at 5.45 mg/kg BID for 21 days (Day22-42). All doses were based on free-base weight.

[4] = system: Primary tumor cells from a patient with colorectal cancer cultured in Matrigel co-cultured with allogeneic human PBMCs; test: IFN-γ release in primary human tumor cells (Matrigel)/PBMC co-culture with EpCAM×CD3 bispecific T cell engager; type: cell-based; conditions: 50 ng/mL EpCAM×CD3 bispecific T cell engager, 72 hours; Compound B 30 nM, Mab-1 1 μg/mL; treatment group divided by control group
Description: After signed the informed consent, healthy human donor's blood was collected and PBMCs were isolated with Ficoll (GE Healthcare, 17-1440-02) according to the manufacturer's protocol with small modification. Briefly, fresh blood was diluted with equivalent volume of 1×DPBS (Gibco®, 14190-144), added equivalent volume of Ficoll into a 50 mL sterile tube, and added diluted blood very carefully onto the surface of the Ficoll. Then centrifuged at 400 g for 40 minutes at room temperature. Carefully removed the upper layer and pipetted the lymphocyte layer to a clean sterile tube, added 3 volumes of 1×DPBS and centrifuge at 200 g for 10 minutes at room temperature. After discarded the supernatant, suspended cells with 10 mL 1×DPBS and washed 2 times more. Suspended cells with 5 mL RPMI-1640 (Gibco®, 22400-089) complete medium (added with 10% fetal bovine serum (Gibco®, 10099-141). […]
Primary tumor cells from a patient with colorectal cancer cultured in Matrigel® were co-cultured with non pre-activated allogeneic human PBMCs, with 50 ng/ml EpCAM×CD3 bispecific T cell engager and with or without an PARP inhibitor named Compound B (30 nM) or an anti-PD-1 antibody named Mab-1 (1 μg/mL), or their combination (named as Mab-1+ Compound B, for short), and cultured for 72 hours. Human IFN-γ in the supernatant of the co-culture system was measured and as the readout (See FIG. 4). […]

[5] = Particle size distribution of crystalline sesqui-hydrate; type: physicochemical
Description: Compound A-Crude 2 (5.3 Kg) was mixed with a solution of isopropanol (41.6 Kg) and water (15.9 Kg). The mixture was degassed and re-protected under nitrogen and then heated to 60° C. and stirred for 2-4 h until the solid was dissolved completely. The temperature was raised to 70-80° C. and water (143 Kg) was added. The resulting mixture was heated to the internal temperature of 70-80° C. and then the heating was stopped but stirred gently for 16 h. The precipitate was filtered, washed with water (19 Kg) and slurred with water (21 kg) for 2 h. The resulting solid was filtered, washed with water (20 Kg). The filtered solid was dried at the temperature below 45° C. for 24-36 h. Compound A sesqui-hydrate (4.22 kg) was obtained with particle sizes of D90=51.51 um, D50=18.62 um, D10=7.63 um. This range of PSD is almost ideal for formulation development.

Row | SMILES | tumor growth inhibition (TGI) on day 21, single agent [1] | PARP1/2 inhibitory activities (PARP1/2) | mean tumor volume after maintenance [2] | body weight change during the maintenance phase compared to the E/C treatment group [3] | fold changes of IFN-γ [4] | particle size D10 [5] | particle size D50 [5] | particle size D90 [5]
1 | CC(=O)O[C@H]1C(=O)[C@@]2(C)[C@H]([C@H](OC(=O)c3ccccc3)[C@]3(O)C[C@H](OC(=O)[C@H](O)[C@@H](NC(=O)c4ccccc4)c4ccccc4)C(C)=C1C3(C)C)[C@]1(OC(C)=O)CO[C@@H]1C[C@@H]2O [paclitaxel, reference compound] | 31% | – | – | – | – | – | – | –
2 | C[C@]12CCCN1CC1=NNC(=O)c3cc(F)cc4[nH]c2c1c34 [Compound A, (R)-2-fluoro-10a-methyl-7,8,9,10,10a,11-hexahydro-5,6,7a,11-tetraazacyclohepta[def]cyclopenta[a]fluoren-4(5H)-one] | 30% | highly selective and potent | – | – | – | – | – | –
3 | C[C@]12CCCN1CC1=NNC(=O)c3cc(F)cc4[nH]c2c1c34 [Compound B, (R)-2-fluoro-10a-methyl-7,8,9,10,10a,11-hexahydro-5,6,7a,11-tetraazacyclohepta[def]cyclopenta[a]fluoren-4(5H)-one sesqui-hydrate] | – | – | 571 mm^3 | no significant body weight change | 1.08 | 7.63 um | 18.62 um | 51.51 um
